Source: paper PMC11784026, “Phase 1 study of the safety, tolerability, and pharmacokinetics of a synthetic macrocyclic peptide antibiotic (BRII-693) in healthy adult participants” (Antimicrobial Agents and Chemotherapy, 2024)
Where two headings read alike, the source gives them in different places. Marks after values point to notes of the source that are not given here. Where a SMILES comes first, the peptide text is derived from it. Bridges are numbered along the chain shown (N, C = ends). [ ]: non-standard residue; d: D form. The star is where a group is joined. X1 = O=C(c1ccc(Cl)cc1Cl)*; Dab = NCC[C@H](N)C(=O)O; Abu = CC[C@H](N)C(=O)O; Dap = NC[C@H](N)C(=O)O

Key:
[1] = SAD; for fe0–48h: % of dose in urine as unchanged drug over 48 h; for CLR: renal clearance
Method: During the SAD phase of the study, cohort dosing of 10, 25, 50, 100, 200, 300, and 400 mg of BRII-693 was evaluated in a sequential manner. Each of the seven SAD cohorts enrolled eight eligible participants (six active; two placebo). On day 1, participants received a single IV dose of BRII-693 or placebo as a 1-hour infusion. Participants were then discharged on day 3.
For the SAD cohorts, blood samples for the measurement of BRII-693 in plasma were obtained before dosing and at 0.5 (mid-infusion), 1 (end of infusion), 1.25, 1.5, 2, 4, 6, 8, 12, 24, 36, and 48 hours following the start of dosing infusion. Urine samples were collected for PK assessment before dosing and at the time intervals of 0–4, 4–8, 8–12, 12–24, 24–36, and 36–48 hours after the start of dosing infusion.
All blood samples were collected into EDTA-containing vials, immediately placed on ice, and centrifuged at 3,000× g for approximately 10 minutes at 4°C. Supernatant plasma was transferred to two pre-chilled cryopreservation vials (at least 1.0 mL per vial) and stored at −80°C until shipped to the analytical laboratory. Urine samples collected for each time interval were refrigerated, aliquoted, and stored at −80°C until shipped to the analytical laboratory. Plasma and urine samples were analyzed for BRII-693 concentrations using validated high-performance liquid chromatography with detection by mass spectrometry method (BioAgilytix, San Diego, CA). The assay range was 50.0–50,000 ng/mL in both plasma and urine.
Area under the concentration-time curve (AUC) from time zero to the time of the last quantifiable concentration (AUC0–last), AUC from time zero to infinity (AUC0–inf), AUC within a dosing interval of 6 hours (AUC0–6h), maximum observed concentration (Cmax), time to reach maximum concentration (Tmax), apparent terminal half-life (t1/2), total clearance (CL), volume of distribution during terminal phase (Vz), and accumulation ratio based on AUC (ARAUC) were determined for BRII-693 in plasma. Urine parameters included amount and percentage of dose recovered in urine as unchanged drug over each collection interval and cumulatively and renal clearance (CLR). PK parameters were determined using noncompartmental methods in Phoenix WinNonlin (Certara, Version 8.3).

[2] = Plasma pharmacokinetics after single ascending doses (SAD), phase 1; assay type: in vivo, human (healthy adult participants); settings: for clearance / Vd / half-life / AUC(0-inf) / Cmax / AUC(0-t) / Tmax: human, plasma; for clearance: total clearance; for Vd: volume of distribution during terminal phase, read-out: VZ; for half-life: apparent terminal half-life; for AUC(0-t): read-out: AUC0–6h
Method: Participants were then discharged on day 3.
Plasma and urine PK parameters were summarized for each cohort using descriptive statistics. Analyses using linear models were performed to assess dose proportionality (both single-dose cohorts 1–7 and multiple-dose cohorts 8–10). Dose-linearity of Cmax and AUC across the dose range was assessed by fitting the power model with ln-transformed parameter as response variables and ln-transformed dose (continuous variable) as a fixed effect. For each PK parameter and study phase (SAD or MAD) separately, a pooled estimate (across all dose cohorts) of slope, corresponding 95% confidence interval (CI), and between-subject coefficient of variation (CV) were calculated. Dose proportionality was to be concluded if the 95% CI for the slope spans 1. […] Least square means (LSMs) and difference in LSMs with 90% CI were calculated; these values were then back exponentiated to give the geometric LSM, geometric mean ratio, and 90% CI.

[3] = single 1-h IV infusion 10 mg, n = 5, arithmetic mean ± SD
[4] = single 1-h IV infusion 25 mg, n = 5, arithmetic mean ± SD
[5] = single 1-h IV infusion 50 mg, n = 6, arithmetic mean ± SD
[6] = single 1-h IV infusion 100 mg, n = 6, arithmetic mean ± SD
[7] = single 1-h IV infusion 200 mg, n = 6, arithmetic mean ± SD
[8] = single 1-h IV infusion 300 mg, n = 6, arithmetic mean ± SD
[9] = single 1-h IV infusion 400 mg, n = 6, arithmetic mean ± SD
[10] = single 1-h IV infusion 10 mg, n = 6, arithmetic mean ± SD

## CC[C@@H]1NC(=O)[C@@H](CC(C)C)NC(=O)[C@H](CCN)NC(=O)[C@@H](NC(=O)[C@H](CN)NC(=O)[C@@H](NC(=O)[C@H](CCN)NC(=O)c2ccc(Cl)cc2Cl)[C@@H](C)O)CCNC(=O)[C@H]([C@@H](C)O)NC(=O)[C@H](CCN)NC(=O)[C@H](CCN)NC1=O [BRII-693] (X1-[Dab]T[Dap][Dab][Dab][dL][Abu][Dab][Dab]T; lactam 4-C; N-terminus assumed)
[1]; [3]
  fe0–48h: 0.95 ± 0.50^b %
  CLR: 0.036 ± 0.018^b L/h
[1]; [4]
  fe0–48h: 5.73 ± 3.67%
  CLR: 0.22 ± 0.12 L/h
[1]; [5]
  fe0–48h: 21.5 ± 9.19%
  CLR: 0.86 ± 0.33 L/h
[1]; [6]
  fe0–48h: 40.2 ± 5.40%
  CLR: 1.51 ± 0.31 L/h
[1]; [7]
  fe0–48h: 47.6 ± 15.6%
  CLR: 1.92 ± 0.80 L/h
[1]; [8]
  fe0–48h: 57.5 ± 16.2%
  CLR: 2.44 ± 0.50 L/h
[1]; [9]
  fe0–48h: 68.4 ± 11.4%
  CLR: 2.68 ± 0.42 L/h
[2]; [10]
  clearance: 63.8 mL/min
  Vd: 14.1 ± 1.54 L
  half-life: 2.58 ± 0.46 h
  AUC(0-inf): 2640 ± 330 ng·h/mL
  Cmax: 770 ± 120 ng/mL
  AUC(0-t): 2080 ± 190 ng·h/mL
[2]; [4]
  clearance: 72.7 mL/min
  Vd: 20.7 ± 7.61 L
  half-life: 3.22 ± 0.77 h
  AUC(0-inf): 5940 ± 1180 ng·h/mL
  Cmax: 1500 ± 380 ng/mL
  AUC(0-t): 4390 ± 1130 ng·h/mL
[2]; [5]
  clearance: 69.5 mL/min
  Vd: 19.2 ± 3.34 L
  half-life: 3.2 ± 0.43 h
  AUC(0-inf): 12200 ± 1790 ng·h/mL
  Cmax: 3230 ± 460 ng/mL
  AUC(0-t): 9160 ± 1170 ng·h/mL
[2]; [6]
  clearance: 62.7 mL/min
  Vd: 21.8 ± 3.17 L
  half-life: 4.07 ± 0.61 h
  AUC(0-inf): 27300 ± 4580 ng·h/mL
  Cmax: 6710 ± 970 ng/mL
  AUC(0-t): 19200 ± 2740 ng·h/mL
[2]; [7]
  clearance: 68.5 mL/min
  Vd: 21.3 ± 3.27 L
  half-life: 3.83 ± 1.23 h
  AUC(0-inf): 51400 ± 13900 ng·h/mL
  Cmax: 13200 ± 2190 ng/mL
  AUC(0-t): 36700 ± 6290 ng·h/mL
[2]; [8]
  clearance: 72.3 mL/min
  Vd: 25.8 ± 2.73 L
  half-life: 4.12 ± 0.23 h
  AUC(0-inf): 69800 ± 7750 ng·h/mL
  Cmax: 17300 ± 3050 ng/mL
  AUC(0-t): 48900 ± 6180 ng·h/mL
[2]; [9]
  clearance: 65.5 mL/min
  Vd: 24.6 ± 2.47 L
  half-life: 4.37 ± 0.51 h
  AUC(0-inf): 103000 ± 11600 ng·h/mL
  Cmax: 24300 ± 4710 ng/mL
  AUC(0-t): 71400 ± 7200 ng·h/mL
[2]; single 1-h IV infusion 10 mg, n = 6, median (range)
  Tmax: 1.12 h
[2]; single 1-h IV infusion 25 mg, n = 5, median (range)
  Tmax: 1.1 h
[2]; single 1-h IV infusion 50 mg, n = 6, median (range)
  Tmax: 1.07 h
[2]; single 1-h IV infusion 100 mg, n = 6, median (range)
  Tmax: 1.13 h
[2]; single 1-h IV infusion 200 mg, n = 6, median (range)
  Tmax: 1.18 h
[2]; single 1-h IV infusion 300 mg, n = 6, median (range)
  Tmax: 1.16 h
[2]; single 1-h IV infusion 400 mg, n = 6, median (range)
  Tmax: 1.19 h
[2]; single doses 10–400 mg, appeared dose independent
  Mean total clearance: approximately 4 L/h
